Measurements published in patent US9458198B1, “Cyclic peptide-based NPR-B agonists” (priority 2009, dated 2016).

Tests used:
NPR-B = biological target: T1, NPR-B (Homo sapiens, UniProt P20594); test: NPR-B induced production of cyclic GMP in GTM-3 cells; format: cell-based; settings: EC50, cyclic GMP production, GTM-3 cells, FIG. 2, 4-Parameter Logistic Equation
T1 construct: a functional assay using endogenously NPR-B expressing GTM-3 cells; endogenous in cells; host or cells: GTM-3 (transformed human trabecular meshwork cells)
T1 sequence (P20594 23-1047): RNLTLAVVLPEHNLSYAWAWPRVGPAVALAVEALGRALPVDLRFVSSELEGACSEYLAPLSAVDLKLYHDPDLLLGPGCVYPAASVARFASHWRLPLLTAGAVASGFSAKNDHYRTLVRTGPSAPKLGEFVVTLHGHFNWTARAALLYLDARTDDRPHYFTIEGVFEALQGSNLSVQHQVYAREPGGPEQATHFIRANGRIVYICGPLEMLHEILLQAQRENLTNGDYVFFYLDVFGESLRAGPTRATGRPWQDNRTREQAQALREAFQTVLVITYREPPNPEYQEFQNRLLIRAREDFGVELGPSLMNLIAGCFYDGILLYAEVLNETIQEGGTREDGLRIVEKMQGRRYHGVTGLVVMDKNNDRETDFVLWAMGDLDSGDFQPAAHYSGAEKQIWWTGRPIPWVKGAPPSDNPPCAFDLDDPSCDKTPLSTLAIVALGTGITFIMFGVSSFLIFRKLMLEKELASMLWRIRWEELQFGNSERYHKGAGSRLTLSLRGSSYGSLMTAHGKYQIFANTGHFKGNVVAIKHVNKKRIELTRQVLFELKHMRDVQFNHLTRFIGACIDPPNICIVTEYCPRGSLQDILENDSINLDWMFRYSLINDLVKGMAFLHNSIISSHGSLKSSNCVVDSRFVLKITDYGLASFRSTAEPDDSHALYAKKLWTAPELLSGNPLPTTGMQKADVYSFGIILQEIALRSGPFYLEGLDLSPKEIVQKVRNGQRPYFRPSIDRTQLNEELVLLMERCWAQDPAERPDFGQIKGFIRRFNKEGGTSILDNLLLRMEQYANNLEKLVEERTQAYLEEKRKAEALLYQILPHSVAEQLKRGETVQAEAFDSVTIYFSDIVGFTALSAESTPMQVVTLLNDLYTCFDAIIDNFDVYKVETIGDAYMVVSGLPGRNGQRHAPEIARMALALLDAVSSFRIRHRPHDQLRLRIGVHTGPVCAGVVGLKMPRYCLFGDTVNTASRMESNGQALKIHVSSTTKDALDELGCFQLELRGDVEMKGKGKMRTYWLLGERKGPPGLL
How it was run: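 GTM-3 cells with endogenous NPR-B were washed and preincubated 15 min at room temperature in medium with 1 mM IBMX. Compounds were tested at final 45 μM to 20 nM; dose-dependent cGMP production gave Emax and EC50.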

chondrocytes = settings: low doses 10 to 100 pM, at the highest dose; cited from earlier work
AtT-20 cells = settings: cited from earlier work
[1] = test system: small-cell lung cancer cells; settings: 100 nM; cited from earlier work
[2] = test system: human renal carcinoma cells; settings: 100 μM; cited from earlier work
NPR-A = NPR-A (Rattus norvegicus, UniProt P18910); test: cell-based
Sequence of NPR-A (P18910 29-1057): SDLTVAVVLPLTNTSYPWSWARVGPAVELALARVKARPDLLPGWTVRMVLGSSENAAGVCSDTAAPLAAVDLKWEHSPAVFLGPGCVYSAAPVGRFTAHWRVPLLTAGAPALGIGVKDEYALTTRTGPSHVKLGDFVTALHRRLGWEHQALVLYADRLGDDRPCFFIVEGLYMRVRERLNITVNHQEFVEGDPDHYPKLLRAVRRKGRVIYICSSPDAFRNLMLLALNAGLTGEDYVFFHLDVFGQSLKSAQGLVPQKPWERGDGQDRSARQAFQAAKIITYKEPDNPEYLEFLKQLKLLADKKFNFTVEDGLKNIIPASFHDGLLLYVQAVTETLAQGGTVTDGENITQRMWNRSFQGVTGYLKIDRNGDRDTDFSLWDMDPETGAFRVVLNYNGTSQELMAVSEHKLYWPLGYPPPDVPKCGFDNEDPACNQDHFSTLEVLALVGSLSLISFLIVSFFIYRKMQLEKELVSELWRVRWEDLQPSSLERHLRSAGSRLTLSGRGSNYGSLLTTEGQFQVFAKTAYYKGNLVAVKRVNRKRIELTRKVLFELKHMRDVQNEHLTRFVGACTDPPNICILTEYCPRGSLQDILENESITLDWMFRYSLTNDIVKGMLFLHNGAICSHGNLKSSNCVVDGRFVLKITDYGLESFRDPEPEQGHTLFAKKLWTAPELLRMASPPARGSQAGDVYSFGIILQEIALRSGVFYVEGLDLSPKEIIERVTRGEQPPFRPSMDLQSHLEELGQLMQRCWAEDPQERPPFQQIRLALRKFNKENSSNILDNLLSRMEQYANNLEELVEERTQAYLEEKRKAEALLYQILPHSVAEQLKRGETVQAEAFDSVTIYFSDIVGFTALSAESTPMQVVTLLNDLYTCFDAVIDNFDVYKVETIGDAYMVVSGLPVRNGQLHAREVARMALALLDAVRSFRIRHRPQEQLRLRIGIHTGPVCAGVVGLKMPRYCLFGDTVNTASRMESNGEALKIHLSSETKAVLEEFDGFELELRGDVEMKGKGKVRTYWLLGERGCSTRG
Protocol: In this homogenous assay, the cells are stimulated in suspension with the test compound and the production of cyclic GMP (cGMP) is determined, from which EC50 values are calculated.
Detached cells are harvested in 20 ml PBS and centrifuged for 10 min at 200×g at room temperature.
20 μl of cells (2.5×10^3 cells) are added to each well of a 96 well white optical bottom tissue culture plate (Nunc, Germany). 10 μl of compound dilution is added and the cells are stimulated for 25 min. at room temperature. The stimulation is stopped by addition of 20 μl of Lysis buffer (reagent included in cGMP Assay Kit).
Determination of cGMP: The amount of produced cGMP in the cells is determined using HitHunter™ cGMP Assay kit (DiscoveRX) according to manufacturer's instructions.
Dilutions are prepared in Medium supplemented with IBMX (1 mM).

In the case of `CC[C@H](C)[C@@H]1NC(=O)[C@H](CCCNC(=N)N)NC(=O)[C@H](CC(=O)O)NC(=O)[C@H](CC(C)C)NC(=O)[C@H](CCCCN)NC(=O)[C@H](CC(C)C)NC(=O)CNC(=O)[C@H](Cc2ccccc2)NC(=O)[C@@H](NC(=O)CNC(=O)[C@H](CCCCN)NC(=O)[C@H](CO)NC(=O)[C@H](CC(C)C)NC(=O)CN)CSSC[C@@H](C(=O)O)NC(=O)CNC(=O)[C@H](CC(C)C)NC(=O)CNC(=O)[C@H](CO)NC(=O)[C@H](CCSC)NC(=O)[C@H](CO)NC(=O)CNC1=O` [CNP, C-type natriuretic peptide], the EC50 (NPR-B) is given as 38.8 nM, the “increase in cellularity (chondrocyte proliferation)” value (chondrocytes) is given as “up to 43%” and the “stimulation of cGMP production” value (AtT-20 cells) is given as “up to 200 fold”. For the same molecule, the “decrease in the number of cells” value [1] was 39%, the “decrease in cell number” value [2] was 10% and the EC50 (NPR-A) was 1600 nM.
